According to the NIST ThermoML archive (doi:10.1016/j.fluid.2019.112274):

Details: Liquid; for thermal diffusivity: Dynamic light scattering; for speed of sound: Brillouin light scattering

CCCCCCCCCC(=O)OCC [ethyl decanoate]
Details	speed of sound [m/s]	thermal diffusivity [m2/s]
295.34 K, 5000 kPa	–	8.46e-08
295.57 K, 10000 kPa	–	8.67e-08
295.72 K, 7000 kPa	–	8.54e-08
296.25 K, 3000 kPa	–	8.37e-08
296.31 K, 100 kPa	–	8.23e-08
300.71 K, 7000 kPa	1302.7	–
300.78 K, 100 kPa	1283.2	–
300.78 K, 10000 kPa	1329.5	–
300.79 K, 3000 kPa	1290.7	–
300.81 K, 5000 kPa	1295.7	–
310.13 K, 10000 kPa	–	8.5e-08
310.16 K, 5000 kPa	–	8.28e-08
310.19 K, 7000 kPa	–	8.37e-08
310.26 K, 3000 kPa	–	8.19e-08
310.29 K, 100 kPa	–	8.05e-08
310.58 K, 10000 kPa	1301.3	–
310.85 K, 100 kPa	1248.4	–
310.85 K, 5000 kPa	1265	–
310.93 K, 7000 kPa	1271.5	–
311.01 K, 3000 kPa	1258.4	–
320.9 K, 100 kPa	1213.6	–
320.91 K, 5000 kPa	1233.3	–
320.94 K, 3000 kPa	1226.4	–
320.98 K, 7000 kPa	1241.3	–
321 K, 10000 kPa	1269.6	–
324.97 K, 5000 kPa	–	8.07e-08
325.08 K, 7000 kPa	–	8.16e-08
325.11 K, 3000 kPa	–	7.98e-08
325.16 K, 10000 kPa	–	8.29e-08
325.23 K, 100 kPa	–	7.85e-08
330.76 K, 3000 kPa	1192.9	–
330.77 K, 7000 kPa	1210.4	–
330.79 K, 10000 kPa	1239.7	–
330.81 K, 100 kPa	1178.4	–
330.87 K, 5000 kPa	1199.5	–
339.12 K, 7000 kPa	1183	–
339.89 K, 10000 kPa	–	8.08e-08
340.05 K, 7000 kPa	–	7.95e-08
340.11 K, 5000 kPa	–	7.86e-08
340.16 K, 3000 kPa	–	7.78e-08
340.18 K, 100 kPa	–	7.64e-08
340.24 K, 100 kPa	1144.5	–
340.56 K, 10000 kPa	1209.4	–
340.76 K, 5000 kPa	1166.4	–
340.79 K, 3000 kPa	1157.6	–
350.12 K, 10000 kPa	1179.1	–
350.77 K, 3000 kPa	1124.1	–
350.89 K, 7000 kPa	1145.9	–
350.97 K, 5000 kPa	1133.3	–
350.99 K, 100 kPa	1106.3	–
355.14 K, 5000 kPa	–	7.65e-08
355.19 K, 100 kPa	–	7.44e-08
355.22 K, 7000 kPa	–	7.74e-08
355.25 K, 10000 kPa	–	7.86e-08
355.26 K, 3000 kPa	–	7.57e-08
360.27 K, 10000 kPa	1145.7	–
360.32 K, 100 kPa	1073.2	–
360.51 K, 5000 kPa	1102.5	–
360.55 K, 7000 kPa	1115.4	–
360.75 K, 3000 kPa	1090.9	–
369.47 K, 10000 kPa	1115.6	–
369.75 K, 3000 kPa	–	7.34e-08
369.77 K, 7000 kPa	–	7.5e-08
369.78 K, 5000 kPa	–	7.42e-08
369.78 K, 10000 kPa	–	7.63e-08
369.85 K, 100 kPa	–	7.21e-08
371.22 K, 100 kPa	1035.6	–
371.22 K, 7000 kPa	1081.7	–
371.31 K, 5000 kPa	1068.1	–
371.46 K, 3000 kPa	1054.6	–
379.56 K, 7000 kPa	1055.4	–
379.62 K, 5000 kPa	1040.4	–
379.78 K, 100 kPa	1005.8	–
379.78 K, 3000 kPa	1026.4	–
383.22 K, 10000 kPa	1069.6	–
384.3 K, 3000 kPa	–	7.11e-08
384.31 K, 100 kPa	–	6.99e-08
384.31 K, 7000 kPa	–	7.28e-08
384.32 K, 5000 kPa	–	7.2e-08
384.32 K, 10000 kPa	–	7.4e-08
389.06 K, 100 kPa	973.3	–
389.19 K, 5000 kPa	1010.9	–
389.22 K, 7000 kPa	1025	–
389.32 K, 3000 kPa	996.7	–
392.15 K, 10000 kPa	1042.5	–
399.55 K, 10000 kPa	–	7.23e-08
399.56 K, 3000 kPa	–	6.95e-08
399.57 K, 7000 kPa	–	7.11e-08
399.6 K, 100 kPa	–	6.82e-08
399.6 K, 5000 kPa	–	7.03e-08
400.76 K, 100 kPa	933.3	–
400.79 K, 3000 kPa	958.4	–
400.81 K, 7000 kPa	989.3	–
400.9 K, 5000 kPa	973.6	–
401.26 K, 10000 kPa	1015	–
408.81 K, 3000 kPa	933.4	–
409.55 K, 5000 kPa	946.8	–
410.3 K, 7000 kPa	960.7	–
410.85 K, 100 kPa	900.2	–
411.61 K, 10000 kPa	983.4	–
414.33 K, 10000 kPa	–	7.01e-08
414.35 K, 3000 kPa	–	6.73e-08
414.36 K, 7000 kPa	–	6.89e-08
414.41 K, 5000 kPa	–	6.81e-08
414.43 K, 100 kPa	–	6.61e-08
419.6 K, 100 kPa	871.4	–
419.67 K, 3000 kPa	899.1	–
419.68 K, 5000 kPa	915	–
